Experimental findings from patent US20100204129A1, “USE OF A PEPTIDE AS A THERAPEUTIC AGENT” (priority 2008, published 2010) are described below.

This experiment has as its system drug-resistant Mycobacterium tuberculosis. The settings on record: 5 micrograms per ml.

Non-standard residues stand in square brackets, D forms with d. Residues, ends and D or L forms follow the SMILES beside them.

`CC(C)C[C@H](NC(=O)[C@H](CC(C)C)NC(=O)[C@@H](Cc1c[nH]c2ccccc12)NC(=O)[C@H](Cc1ccccc1)NC(=O)[C@@H](Cc1c[nH]c2ccccc12)NC(=O)[C@H](CCC(N)=O)NC(=O)[C@H](CCC(N)=O)NC(=O)[C@@H]1CCCN1C(=O)[C@H](CCCCN)NC(=O)[C@@H]1CCCN1C(=O)[C@@H](CCCNC(=N)N)NC(=O)[C@@H]1CCCN1C(=O)CNC(=O)[C@H](CC(C)C)NC(=O)[C@H](CC(C)C)NC(=O)[C@H](Cc1ccc(O)cc1)NC(=O)CNC(=O)[C@H](C)NC(=O)[C@H](CO)NC(=O)[C@H](CC(N)=O)NC(=O)[C@H](CC(C)C)NC(=O)[C@@H](NC(=O)[C@H](Cc1c[nH]c2ccccc12)NC(=O)CN)[C@@H](C)O)C(N)=O` [Spantide-I, Gly-Trp-Thr-Leu-Asn-Ser-Ala-Gly-Tyr-Leu-Leu-Gly-Pro-D-Arg-Pro-Lys-Pro-Gln-Gln-D-Trp-Phe-D-Trp-Leu-Leu-NH2] (H-GWTLNSAGYLLGP[dR]PKPQQ[dW]F[dW]LL-NH2): the % inhibition (in general, the share of the control response that was lost under treatment) is listed as 100.0%.
